Test results: ChEMBL document CHEMBL2029340 (J Med Chem, 2012)
The source made the active and inactive calls. No cut-off for these calls is given here.

Legend:
Influenza A virus [1] = assay: Antiviral activity against amantidine-resistant Influenza A virus A/WSN/33(H1N1) infected in MDCK cells assessed as inhibition of virus-induced cytopathic effects after 3 days by CCK-8 assay; assay type: functional, organism-based; details: A/WSN/1933(H1N1), 72 h
Influenza A virus [2] = assay: Antiviral activity against amantidine-resistant Influenza A virus A/WSN/33(H1N1) infected in MDCK cells assessed as reduction in plaque formation at 1 uM after 3 days by microscopy; assay type: functional, organism-based; details: A/WSN/1933(H1N1)
Influenza A virus [3] = assay: Antiviral activity against amantidine-resistant Influenza A virus A/WSN/33(H1N1) infected in MDCK cells assessed as reduction in plaque formation at 0.3 uM after 3 days by microscopy; assay type: functional, organism-based; details: A/WSN/1933(H1N1)
Influenza A virus [4] = assay: Antiviral activity against amantidine-resistant Influenza A virus A/WSN/33(H1N1) infected in MDCK cells assessed as reduction in plaque formation after 3 days by microplate counting of infectious particles assay; assay type: functional, organism-based; details: A/WSN/1933(H1N1), 72 h
Influenza A virus [5] = assay: Antiviral activity against tamiflu-resistant Influenza A virus A/WSN/33 (H1N1) harboring neuraminidase 274Y mutant infected in MDCK cells assessed as reduction of nucleoprotein antigen level after 3 days; assay type: functional, organism-based, A/WSN/1933(H1N1)
Influenza A virus [6] = assay: Antiviral activity against Influenza A virus A/WSN/1933 (H1N1) harboring wild type nucleoprotein 52Y infected in MDCK cells assessed as reduction of nucleoprotein antigen level after 3 days; assay type: functional, organism-based; details: 72 h
Influenza A virus [7] = assay: Antiviral activity against Influenza A virus A/WSN/1933 (H1N1) harboring nucleoprotein 52H mutant infected in MDCK cells assessed as reduction of nucleoprotein antigen level after 3 days; assay type: functional, organism-based
Influenza A virus [8] = assay: Antiviral activity against amantidine-resistant Influenza A virus A/WSN/33(H1N1) infected in MDCK cells assessed as reduction in plaque formation after 3 days by microscopy; assay type: functional, organism-based; details: A/WSN/1933(H1N1)

Row | SMILES | IC50 (Influenza A virus [1]) [µM] | other results
1 | CCOc1ccccc1-n1nnc(C)c1C(=O)N1CCN(c2ccc([N+](=O)[O-])cc2Cl)CC1 | 3.22 | –
2 | Cc1nnn(-c2cccc(Cl)c2)c1C(=O)N1CCN(c2ccc([N+](=O)[O-])cc2Cl)CC1 | 4.89 | –
3 | CCc1nnn(-c2ccccc2OC)c1C(=O)N1CCN(c2ccc([N+](=O)[O-])cc2Cl)CC1 | > 50 | –
4 | Cc1nnn(-c2ccccc2OC(C)C)c1C(=O)N1CCN(c2ccc([N+](=O)[O-])cc2Cl)CC1 | 8.42 | –
5 | COc1ccccc1-n1nnc(C)c1C(=O)N1CCN(c2ccc([N+](=O)[O-])cc2Cl)CC1 | 0.68 | Activity (Influenza A virus [2]): Active; Activity (Influenza A virus [3]): Active; IC50 (Influenza A virus [4]): 0.23 µM; IC50 (Influenza A virus [5]): 1.11 µM; IC50 (Influenza A virus [6]): 1.4 µM; IC50 (Influenza A virus [7]): > 50 µM
6 | COc1cccc(OC)c1-n1nnc(C)c1C(=O)N1CCN(c2ccc([N+](=O)[O-])cc2Cl)CC1 | 1.34 | –
7 | Cc1nnn(-c2ccc(Cl)cc2)c1C(=O)N1CCN(c2ccc([N+](=O)[O-])cc2Cl)CC1 | 4.93 | –
8 | O=C(c1ccccc1-c1ccccc1)N1CCN(c2ccc([N+](=O)[O-])cc2Cl)CC1 | 5.24 | –
9 | COc1ccccc1-n1nnc(C)c1C(=O)N1CCN(c2ccccc2)CC1 | > 50 | –
10 | COc1cc([N+](=O)[O-])ccc1N1CCN(C(=O)c2c(C)nnn2-c2ccccc2OC)CC1 | > 50 | –
11 | Cc1nnn(-c2ccccc2O)c1C(=O)N1CCN(c2ccc([N+](=O)[O-])cc2Cl)CC1 | 1.58 | –
12 | COc1cccc(-n2nnc(C)c2C(=O)N2CCN(c3ccc([N+](=O)[O-])cc3Cl)CC2)c1 | 5.35 | –
13 | COc1ccccc1-n1nnc(C)c1C(=O)N1CCN(c2ccc([N+](=O)[O-])cc2)CC1 | 17 | –
14 | COc1ccccc1-n1nncc1C(=O)N1CCN(c2ccc([N+](=O)[O-])cc2Cl)CC1 | 8.36 | –
15 | Cc1[nH]nc(-c2ccccc2)c1C(=O)N1CCN(c2ccc([N+](=O)[O-])cc2Cl)CC1 | 3.38 | –
16 | COc1ccccc1-n1nnc(C)c1C(=O)N1CCN(c2ccccc2Cl)CC1 | 48.1 | –
17 | Cc1ccccc1-n1nnc(C)c1C(=O)N1CCN(c2ccc([N+](=O)[O-])cc2Cl)CC1 | 2.4 | –
18 | COc1ccccc1-c1ccccc1C(=O)N1CCN(c2ccc([N+](=O)[O-])cc2Cl)CC1 | 1.57 | –
19 | Cc1noc(-c2ccccc2)c1C(=O)N1CCN(c2ccc([N+](=O)[O-])cc2Cl)CC1 | 4.83 | –
20 | COc1ccc(-n2nnc(C)c2C(=O)N2CCN(c3ccc([N+](=O)[O-])cc3Cl)CC2)cc1 | 5.61 | –
21 | NC12CC3CC(CC(C3)C1)C2 [AMANTADINE] | > 50 | –
22 | Cc1onc(-c2ccccc2)c1C(=O)N1CCN(c2ccc([N+](=O)[O-])cc2Cl)CC1 [NUCLEOZIN] | 0.32 | Activity (Influenza A virus [8]): Dose-dependent effect; Activity (Influenza A virus [3]): Active; IC50 (Influenza A virus [4]): 0.1 µM; IC50 (Influenza A virus [5]): 0.66 µM; IC50 (Influenza A virus [6]): 0.49 µM; IC50 (Influenza A virus [7]): > 50 µM
23 | COc1ccccc1-n1nnc(C)c1C(=O)N1CCCN(c2ccc([N+](=O)[O-])cc2Cl)CC1 | 35.5 | –
24 | Cc1nnn(-c2ccccc2)c1C(=O)N1CCN(c2ccc([N+](=O)[O-])cc2Cl)CC1 | 3.13 | –
25 | Cc1[nH]nc(-c2ccccc2Cl)c1C(=O)N1CCN(c2ccc([N+](=O)[O-])cc2Cl)CC1 | 0.72 | –
26 | COc1ccccc1-c1onc(C)c1C(=O)N1CCN(c2ccc([N+](=O)[O-])cc2Cl)CC1 | 0.71 | –
27 | Cc1nnn(-c2ccccc2Cl)c1C(=O)N1CCN(c2ccc([N+](=O)[O-])cc2Cl)CC1 | 1.2 | –
28 | CC(=O)c1ccccc1-n1nnc(C)c1C(=O)N1CCN(c2ccc([N+](=O)[O-])cc2Cl)CC1 | 13.7 | –
